Patent US20240209028A1, “CNP COMPOUNDS” (priority 2022, published 2024)
Values after ≈ are worked out from the molar mass of the structure shown. Like-named read-outs stand apart in the source and are kept apart here. Starred links: 1 amine or outer side, 2 acyl side, 3 side chain; linkers in the order of their positions; H or OH if unused. Positions of bridges follow the written chain, without caps; N, C: chain ends. Residues, ends and D or L forms follow the SMILES beside them. *: point of attachment. C18 diacid = O=C(O)CCCCCCCCCCCCCCCCC(=O)*; γGlu = O=C(O)[C@H](CCC(=O)[*:2])N[*:1]; AEEA = NCCOCCOCC(=O)O

Experiment: Solubility of CNP compounds at pH 4.0 and pH 6.5
Assay type: physicochemical
Experimental: In order to assess the suitability of CNP compounds for a soluble liquid formulation, the solubility of CNP compounds in pharmaceutically relevant buffers were measured. Solubility at two different pH-levels (pH 4.0 and pH 6.5) was examined as pH is expected to affect solubility.
Preparation of pH 4.0 samples: The pH 4.0 samples of the CNP compounds were prepared by mixing freeze dried peptide with a pH 4.0 5 mM sodium acetate, 250 mM glycerol buffer at room temperature to a nominal concentration of at least 4000-5000 nmol/mL. The pH of the samples was measured and adjusted to pH 4.0 and the samples were allowed to equilibrate at room temperature until next day if not fully dissolved.
Preparation of pH 6.5 samples: The pH 6.5 samples of the CNP compounds were prepared by dissolving the freeze dried peptide in water. While stirring, a part of the peptide solution was transferred to a buffer consisting of 41 mM sodium phosphate and 118 mg/mL glycerol, pH 7.5-8.0, followed by addition of diluted sodium hydroxide followed by another part of the peptide solution and further addition of diluted sodium hydroxide. This procedure was repeated until all of the peptide solution had been added where a nominal concentration of at least 4000-5000 nmol/mL had been reached and the buffer composition was 8 mM sodium phosphate, 23 mg/mL glycerol. The pH of the samples were measured and adjusted to pH 6.5 and the samples were allowed to equilibrate at room temperature until next day if not fully dissolved.
Procedure: Samples at pH 4.0 were prepared as described above and the compound concentration in the supernatant was determined using CAD (Method F, CAD02).
Samples at pH 6.5 were prepared as described above and peptide concentration in the supernatant was determined by CAD (Method F, CAD02).

[1] = 8 mM sodium phosphate, 23 mg/mL glycerol, pH 6.5, room temperature, read-out: Solubility at pH 6.5
[2] = 5 mM sodium acetate, 250 mM glycerol, pH 4.0, room temperature, read-out: Solubility at pH 4.0

| SMILES | solubility [1] | solubility [2] |
| --- | --- | --- |
| CC[C@H](C)[C@@H]1NC(=O)[C@H](CCCNC(=N)N)NC(=O)[C@H](CC(=O)O)NC(=O)[C@H](CC(C)C)NC(=O)[C@@H]2CCCN2C(=O)[C@H](CC(C)C)NC(=O)CNC(=O)[C@H](Cc2ccccc2)NC(=O)[C@@H](NC(=O)CNC(=O)[C@H](CCC(N)=O)NC(=O)[C@H](CO)NC(=O)[C@H](CC(C)C)NC(=O)CNC(=O)[C@H](CCCCN)NC(=O)[C@H](CCCCN)NC(=O)[C@H](CCC(N)=O)NC(=O)[C@H](C)NC(=O)CNC(=O)[C@H](CCCCN)NC(=O)[C@H](Cc2ccc(O)cc2)NC(=O)[C@H](CCCCN)NC(=O)[C@H](CCCNC(=N)N)NC(=O)[C@H](C)NC(=O)[C@H](CCC(N)=O)NC(=O)[C@@H]2CCCN2C(=O)[C@H](Cc2c[nH]cn2)NC(=O)[C@H](CCC(=O)O)NC(=O)[C@H](CCC(N)=O)NC(=O)COCCOCCNC(=O)COCCOCCNC(=O)COCCOCCNC(=O)COCCOCCNC(=O)CC[C@H](NC(=O)CC[C@H](NC(=O)CC[C@H](NC(=O)CC[C@H](NC(=O)CC[C@H](NC(=O)CC[C@H](NC(=O)CCCCCCCCCCCCCCCCC(=O)O)C(=O)O)C(=O)O)C(=O)O)C(=O)O)C(=O)O)C(=O)O)CSSC[C@@H](C(=O)O)NC(=O)CNC(=O)[C@H](CC(C)C)NC(=O)CNC(=O)[C@H](CO)NC(=O)[C@H](CC(C)C)NC(=O)[C@H](CO)NC(=O)CNC1=O [compound 1404] ({C18 diacid-γGlu-γGlu-γGlu-γGlu-γGlu-γGlu-AEEA-AEEA-AEEA-AEEA}-QEHPQARKYKGAQKKGLSQGCFGLPLDRIGSLSGLGC-OH; disulfide 21-37) | 6.88 mM (≈ 38.4 mg/mL) | – |
| CC[C@H](C)[C@@H]1NC(=O)[C@H](CCCNC(=N)N)NC(=O)[C@H](CC(=O)O)NC(=O)[C@H](CC(C)C)NC(=O)[C@@H]2CCCN2C(=O)[C@H](CC(C)C)NC(=O)CNC(=O)[C@H](Cc2ccccc2)NC(=O)[C@@H](NC(=O)CNC(=O)[C@H](CCC(N)=O)NC(=O)[C@H](CO)NC(=O)[C@H](CC(C)C)NC(=O)CNC(=O)[C@H](CCCCN)NC(=O)[C@H](CCCCN)NC(=O)[C@H](CCC(N)=O)NC(=O)[C@H](C)NC(=O)CNC(=O)[C@@H]2CCCN2C(=O)[C@H](C)NC(=O)[C@H](CCC(N)=O)NC(=O)CNC(=O)COCCOCCNC(=O)COCCOCCNC(=O)CC[C@H](NC(=O)CCCCCCCCCCCCCCCCC(=O)O)C(=O)O)CSSC[C@@H](C(=O)O)NC(=O)CNC(=O)[C@H](CC(C)C)NC(=O)CNC(=O)[C@H](CO)NC(=O)[C@H](CC(C)C)NC(=O)[C@H](CO)NC(=O)CNC1=O [compound 1484] ({C18 diacid-γGlu-AEEA-AEEA}-GQAPGAQKKGLSQGCFGLPLDRIGSLSGLGC-OH; disulfide 15-31; C-terminus assumed) | 2.33 mM (≈ 8.7 mg/mL) | – |
| CC[C@H](C)[C@@H]1NC(=O)[C@H](CCCNC(=N)N)NC(=O)[C@H](CC(=O)O)NC(=O)[C@H](CC(C)C)NC(=O)[C@@H]2CCCN2C(=O)[C@H](CC(C)C)NC(=O)CNC(=O)[C@H](Cc2ccccc2)NC(=O)[C@@H](NC(=O)CNC(=O)[C@H](CCCCN)NC(=O)[C@H](CO)NC(=O)[C@H](CC(C)C)NC(=O)CNC(=O)[C@H](CCCCN)NC(=O)[C@H](CCCCN)NC(=O)[C@H](CCC(N)=O)NC(=O)[C@H](C)NC(=O)CNC(=O)[C@H](CCCCN)NC(=O)[C@H](Cc2ccc(O)cc2)NC(=O)[C@H](CCCCN)NC(=O)[C@H](CCCNC(=N)N)NC(=O)[C@H](C)NC(=O)COCCOCCNC(=O)COCCOCCNC(=O)CC[C@H](NC(=O)CC[C@H](NC(=O)CC[C@H](NC(=O)CC[C@H](NC(=O)CC[C@H](NC(=O)CCCCCCCCCCCCCCCCC(=O)O)C(=O)O)C(=O)O)C(=O)O)C(=O)O)C(=O)O)CSSC[C@@H](C(=O)O)NC(=O)CNC(=O)[C@H](CC(C)C)NC(=O)CNC(=O)[C@H](CO)NC(=O)[C@H](CC(C)C)NC(=O)[C@H](CO)NC(=O)CNC1=O [compound 1470] ({C18 diacid-γGlu-γGlu-γGlu-γGlu-γGlu-AEEA-AEEA}-ARKYKGAQKKGLSKGCFGLPLDRIGSLSGLGC-OH; disulfide 16-32) | 0.595 mM (≈ 2.7 mg/mL) | 6.48 mM (≈ 29.4 mg/mL) |
| CC[C@H](C)[C@@H]1NC(=O)[C@H](CCCNC(=N)N)NC(=O)[C@H](CC(=O)O)NC(=O)[C@H](CC(C)C)NC(=O)[C@@H]2CCCN2C(=O)[C@H](CC(C)C)NC(=O)CNC(=O)[C@H](Cc2ccccc2)NC(=O)[C@@H](NC(=O)CNC(=O)[C@H](CCC(N)=O)NC(=O)[C@H](CO)NC(=O)[C@H](CC(C)C)NC(=O)CNC(=O)[C@H](CCCCN)NC(=O)[C@H](CCCCN)NC(=O)[C@H](CCC(N)=O)NC(=O)[C@H](C)NC(=O)CNC(=O)[C@H](CCCCN)NC(=O)[C@H](Cc2ccc(O)cc2)NC(=O)[C@H](CCCCN)NC(=O)[C@H](Cc2c[nH]cn2)NC(=O)[C@H](C)NC(=O)[C@H](CCC(N)=O)NC(=O)[C@@H]2CCCN2C(=O)[C@H](Cc2c[nH]cn2)NC(=O)[C@H](CCC(=O)O)NC(=O)[C@H](CCC(N)=O)NC(=O)COCCOCCNC(=O)COCCOCCNC(=O)CC[C@H](NC(=O)CC[C@H](NC(=O)CC[C@H](NC(=O)CCCCCCCCCCCCCCCCC(=O)O)C(=O)O)C(=O)O)C(=O)O)CSSC[C@@H](C(=O)O)NC(=O)CNC(=O)[C@H](CC(C)C)NC(=O)CNC(=O)[C@H](CO)NC(=O)[C@H](CC(C)C)NC(=O)[C@H](CO)NC(=O)CNC1=O [compound 1382] ({C18 diacid-γGlu-γGlu-γGlu-AEEA-AEEA}-QEHPQAHKYKGAQKKGLSQGCFGLPLDRIGSLSGLGC-OH; disulfide 21-37) | 3.18 mM (≈ 15.5 mg/mL) | – |
| CC[C@H](C)[C@@H]1NC(=O)[C@H](CCCNC(=N)N)NC(=O)[C@H](CC(=O)O)NC(=O)[C@H](CC(C)C)NC(=O)[C@@H]2CCCN2C(=O)[C@H](CC(C)C)NC(=O)CNC(=O)[C@H](Cc2ccccc2)NC(=O)[C@@H](NC(=O)CNC(=O)[C@H](CO)NC(=O)[C@H](CO)NC(=O)[C@H](CC(C)C)NC(=O)CNC(=O)[C@H](CCCCN)NC(=O)[C@H](CCCCN)NC(=O)[C@H](CCC(N)=O)NC(=O)[C@H](C)NC(=O)CNC(=O)[C@H](CCCCN)NC(=O)[C@H](Cc2ccc(O)cc2)NC(=O)[C@H](CCCCN)NC(=O)[C@H](CCCNC(=N)N)NC(=O)[C@H](C)NC(=O)[C@H](CCC(N)=O)NC(=O)[C@@H]2CCCN2C(=O)[C@H](Cc2c[nH]cn2)NC(=O)[C@H](CCC(=O)O)NC(=O)[C@H](CCC(N)=O)NC(=O)COCCOCCNC(=O)COCCOCCNC(=O)CC[C@H](NC(=O)CC[C@H](NC(=O)CC[C@H](NC(=O)CC[C@H](NC(=O)CCCCCCCCCCCCCCCCC(=O)O)C(=O)O)C(=O)O)C(=O)O)C(=O)O)CSSC[C@@H](C(=O)O)NC(=O)CNC(=O)[C@H](CC(C)C)NC(=O)CNC(=O)[C@H](CO)NC(=O)[C@H](CC(C)C)NC(=O)[C@H](CO)NC(=O)CNC1=O [compound 1473] ({C18 diacid-γGlu-γGlu-γGlu-γGlu-AEEA-AEEA}-QEHPQARKYKGAQKKGLSSGCFGLPLDRIGSLSGLGC-OH; disulfide 21-37; C-terminus assumed) | 1.76 mM (≈ 8.8 mg/mL) | 5.83 mM (≈ 29.1 mg/mL) |
